This test concerns spleen lymphocytes of B2-haplotype chicken infected with ALV-J. Kind of test: IFN-γ ELISpot assay detecting immunogenicity of candidate peptides. Format: cell-based. To be noted: peptide 10 μg/mL as stimulant, spleen lymphocytes of B2-haplotype chicken infected for 28 d; for IFN-γ ELISpot spots generated compared with the negative control group: 24-48 h; for IFN-γ ELISpot spots, significance versus negative control (immunogenic T cell epitope): P<0.05, three independent replications. How it is done:
The B2-haplotype chicken infected for 28 d (day) in 2.1 is taken, and the spleen lymphocytes of the chicken are isolated according to the kit instructions of the chicken organ tissue mononuclear cell isolation solution, and an ELISpot assay is performed to detect the immunogenicity of candidate peptide epitopes. The specific steps are as follows:
(1) PVDF 96-well plate activation: 15 μL 35% ethanol is added to each well for reaction for less than 1 min, and then the wells are washed five times with sterile water.
(2) Antibody coating: the anti-chicken IFN-γ is diluted to 15 μg/mL, and 100 μL of that is added to each well, and the mixture is incubated at 4° C. overnight.
(3) Blocking: the coating solution is discarded, followed by washing 5 times with DPBS, and the plate is dried on the sterilized absorbent paper. RMPI 1640 medium containing 10% FBS is added to PVDF 96-well plate at 200 μL/well and the reaction is blocked at room temperature for 30 min.
(4) Stimulation: the blocking solution is discarded and 100 μL of prepared lymphocyte suspension at the concentration of 5*10^6 cells/mL is added to each well. At the same time, 50 μL diluted antigenic peptide is added to the experimental group at the final concentration of 10 μg/mL, PMA at the final concentration of 10 μg/mL is added to the positive control group, and no irritant is added to the negative control group. After all the samples are added, PVDF 96-well plate is placed in CO2 incubator at 37° C. for 24-48 h.
(5) Incubation of secondary antibody: after the culture, the cells are shaken off and the plate is washed five times with DPBS. Then 100 μL biotinylated secondary antibody with a concentration of 1 μg/mL is added to each well and the plate is incubated for 2 h at room temperature.
(6) HRP incubation: the secondary antibody solution is discarded and washed with DPBS for 5 times. Then 100 μL streptavidin-labeled HRP is added to the well and incubated at room temperature for 1 h.
(7) Color development: the HRP incubation solution is discarded and the plate is washed with DPBS for 5 times. Then 100 μL TMB color-developing substrate is added to each well followed by incubation at room temperature or 37° C. for 15-30 min. When obvious spots appeared in the positive control group, the color-developing solution could be discarded. the color development is stopped with pure water and the plate is read after air drying.

The source of these data is patent publication US20230227505A1, “IDENTIFICATION AND APPLICATION OF ALV-J MHC-B2 R[…] PEPTIDE” (South China Agricultural University, priority 2022, published 2023).

Take FVDFANRLI (ALV-J-59): the “IFN-γ ELISpot spots generated compared with the negative control group” value was “could generate spots” and the “IFN-γ ELISpot spots, significance versus negative control (immunogenic T cell epitope)” value was “significantly produce more spots”.

With SALQAFREV (ALV-J-61), the “IFN-γ ELISpot spots generated compared with the negative control group” value was “could generate spots” and the “IFN-γ ELISpot spots, significance versus negative control (immunogenic T cell epitope)” value is listed as “significantly produce more spots”.

With TVDTASSAI (ALV-J-52), the “IFN-γ ELISpot spots generated compared with the negative control group” value is on record as “could generate spots” and the “IFN-γ ELISpot spots, significance versus negative control (immunogenic T cell epitope)” value is recorded as “significantly produce more spots”.
